Experimental findings from article PMC7734281, “Functionalized Oxoindolin Hydrazine Carbothioamide Derivatives as Highly Potent Inhibitors of Nucleoside Triphosphate Diphosphohydrolases” (Frontiers in Pharmacology, 2020) are described below.

Holding throughout (format): biochemical
One assay addresses T1, h-NTPDase1 (Homo sapiens, UniProt P49961).
T1 construct: made in house; host or cells: COS-7 cells, transient transfection; crude protein extract after sonication
T1 sequence (P49961 1-510): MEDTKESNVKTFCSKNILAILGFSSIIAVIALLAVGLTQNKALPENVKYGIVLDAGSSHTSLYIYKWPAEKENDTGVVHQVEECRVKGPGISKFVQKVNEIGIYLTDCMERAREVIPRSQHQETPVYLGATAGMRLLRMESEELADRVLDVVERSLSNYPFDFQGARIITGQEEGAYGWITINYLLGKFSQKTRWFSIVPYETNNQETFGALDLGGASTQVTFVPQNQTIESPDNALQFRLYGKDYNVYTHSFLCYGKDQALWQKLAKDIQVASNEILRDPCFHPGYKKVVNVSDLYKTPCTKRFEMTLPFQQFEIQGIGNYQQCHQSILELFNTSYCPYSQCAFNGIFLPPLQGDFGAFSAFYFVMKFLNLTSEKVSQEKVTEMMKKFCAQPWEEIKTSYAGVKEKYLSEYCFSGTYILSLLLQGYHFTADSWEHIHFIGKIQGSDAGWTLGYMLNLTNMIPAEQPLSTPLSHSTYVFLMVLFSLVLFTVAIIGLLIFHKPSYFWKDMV
Briefly: h-NTPDase1 inhibition, malachite green assay. As to conditions: for inhibition at 100 µM / Ki / IC50: human NTPDase1; for inhibition at 100 µM: compound 100 µM; for IC50: ATP 100 µM substrate, mean ± SEM of three independent experiments. The method, then: (§1) COS-7 cells were transfected with plasmids expressing human or mouse NTPDases1, -2, -3, and -8 as previously described ([Levesque et al., 2007]; [Lecka et al., 2014]) Briefly, the confluent cells were transferred to Dulbecco’s Modified Eagle’s Medium containing no fetal bovine serum. Then, these cells were incubated with plasmid DNA (6 µg) and Lipofectamine reagent (24 µl) at 37°C. After 5 h, transfection was terminated with the addition of an equal volume of DMEM/F-12 (supplemented with 20% FBS) and cells were collected by harvesting after 40–72 h.
(§2) To prepare protein extracts, transfected COS-7 cells were washed three times with tris-saline buffer while temperature was maintained at 4°C. Then cells were scraped and resuspended in harvesting buffer containing 95 mM NaCl, 45 mM tris and 0.1 mM phenylmethylsulfonyl fluoride (pH 7.5). Cells were again washed twice by centrifugation for 5 min at 300 × g at 4°C and then resuspended in harvesting buffer (supplemented with 10 μg ml aprotinin). Following sonication, cellular debris was isolated by 10 min centrifugation at 300 g at 4°C. Subsequently, supernatant was removed very carefully and protein concentration was determined by using Bradford microplate assay while using the bovine serum albumin as a standard ([Bradford, 1976]).
(§3) The inhibitory effects of synthesized compounds on h-NTPDase1, -2, -3, and -8 were determined as described previously, although with slight modifications ([Martín-Satué et al., 2009]). Assay was conducted in a reaction medium containing 50 mM tris-HCl and 5 mM CaCl2 (pH 7.4). All the test compounds were dissolved in dimethyl sulfoxide (DMSO, 10%) and initially screened at a concentration of 100 µM. A reaction mixture containing 55 µl of assay buffer, 10 µl of test compound solution and 10 µl of h-NTPDase1 (58 ng/well) or h-NTPDase2 (79 ng/well) or h-NTPDase3 (163 ng/well) or h-NTPDase8 (66 ng/well) was incubated at 37°C for 10 min. Following the incubation, a 10 µl solution of adenosine triphosphate (ATP, 100 µm) was added as substrate and reaction mixture was again incubated for 15 min at 37°C. The reaction was stopped by adding malachite green reagent (15 µl) and placed at room temperature for 4 to 6 min. Finally, absorbance was measured at 630 nm by using Omega FLUOstar microplate reader (BMG Labtech, Ortenberg, Germany) and % inhibitions were calculated. For compounds showing more than 50% inhibition of any isozyme, dose response curves were generated and their IC50 values were determined. Three separate enzyme inhibition assays were carried out in triplicate and dose-response curve were generated by using PRISM 5.0 (GraphPad, San Diego, United States).

The next assay concerns the target T2, m-NTPDase1 (Mus musculus, UniProt P55772).
T2 construct: made in house; host or cells: COS-7 cells, transient transfection; crude protein extract after sonication
T2 sequence (P55772 1-510): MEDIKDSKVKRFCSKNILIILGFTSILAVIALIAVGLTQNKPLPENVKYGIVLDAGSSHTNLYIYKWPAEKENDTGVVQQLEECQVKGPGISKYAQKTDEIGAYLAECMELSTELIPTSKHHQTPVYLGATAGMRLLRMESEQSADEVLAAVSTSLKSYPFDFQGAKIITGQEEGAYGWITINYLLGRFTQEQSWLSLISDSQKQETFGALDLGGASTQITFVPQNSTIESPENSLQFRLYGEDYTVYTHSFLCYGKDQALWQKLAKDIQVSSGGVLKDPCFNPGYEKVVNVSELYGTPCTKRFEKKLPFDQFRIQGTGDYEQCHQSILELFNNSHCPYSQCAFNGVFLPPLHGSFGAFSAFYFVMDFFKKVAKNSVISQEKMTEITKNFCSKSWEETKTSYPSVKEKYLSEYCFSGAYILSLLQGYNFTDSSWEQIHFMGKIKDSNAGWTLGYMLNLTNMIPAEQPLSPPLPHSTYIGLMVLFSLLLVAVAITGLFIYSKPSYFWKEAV
In words: m-NTPDase1 inhibition, malachite green assay. As to conditions: for inhibition at 100 µM: compound 100 µM; for IC50: mean ± SEM of three independent experiments. The method, then: as §1, §2, §3
(§4) Same procedure was adopted to determine the inhibitory effects of compounds on mouse NTPDases (m-NTPDases). However, the amount of protein used was as follows: m-NTPDase1 (82 ng/well), m-NTPDase2 (57 ng/well), m-NTPDase3 (110 ng/well) and m-NTPDase8 (79 ng/well)

A further assay addresses T3, m-NTPDase3 (Mus musculus, UniProt Q8BFW6).
T3 construct: made in house; host or cells: COS-7 cells, transient transfection; crude protein extract after sonication
T3 sequence (Q8BFW6 1-529): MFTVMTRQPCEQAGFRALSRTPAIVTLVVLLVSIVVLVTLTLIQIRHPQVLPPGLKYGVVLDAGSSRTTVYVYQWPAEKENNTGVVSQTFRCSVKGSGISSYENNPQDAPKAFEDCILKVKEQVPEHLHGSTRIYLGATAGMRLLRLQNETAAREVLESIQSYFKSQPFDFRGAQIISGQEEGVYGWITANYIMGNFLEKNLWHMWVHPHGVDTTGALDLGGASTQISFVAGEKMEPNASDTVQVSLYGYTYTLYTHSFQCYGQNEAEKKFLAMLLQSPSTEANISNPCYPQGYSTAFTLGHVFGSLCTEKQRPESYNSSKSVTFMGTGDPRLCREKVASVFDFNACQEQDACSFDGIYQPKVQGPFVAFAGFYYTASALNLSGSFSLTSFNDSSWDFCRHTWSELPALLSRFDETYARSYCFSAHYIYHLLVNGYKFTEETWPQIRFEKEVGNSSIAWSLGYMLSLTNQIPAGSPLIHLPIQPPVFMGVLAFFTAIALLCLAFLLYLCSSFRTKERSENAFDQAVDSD
Briefly: m-NTPDase3 inhibition, malachite green assay. As to conditions: for inhibition at 100 µM: compound 100 µM; for IC50: mean ± SEM of three independent experiments. The method, then: as §1, §2, §3, §4

Broadly, the inhibition is how much of the control response was suppressed. A low value points to a response near the control. On to `O=C1Nc2ccccc2/C1=N/NC(=S)Nc1cccc(Cl)c1` [8g, (Z)-N-(3-chlorophenyl)-2-(2-oxoindolin-3-ylidene)hydrazine-1-carbothioamide], for which the inhibition at 100 µM at h-NTPDase1 stood at 28%; against m-NTPDase1, 48%; on m-NTPDase3, 27%.

What is called Ki is the equilibrium dissociation constant of an inhibitor or competing ligand from its target. The IC50 is the concentration that gives 50% inhibition. Read a low IC50 as higher potency. As for `O=C1Nc2ccccc2/C1=N/NC(=S)Nc1c(F)cccc1F` [8l, (Z)-N-(2,6-difluorophenyl)-2-(2-oxoindolin-3-ylidene)hydrazine-1-carbothioamide], the values for the inhibitory constant (Ki) at h-NTPDase1, on m-NTPDase1 and at m-NTPDase3 were 0.04 µM, 0.03 µM and 0.03 µM, respectively. For the same compound, the IC50 was found to be 0.3 ± 0.03 µM against h-NTPDase1, 3.22 ± 0.19 µM against m-NTPDase1 and 0.32 ± 0.04 µM against m-NTPDase3.

Consider `O=C1Nc2ccccc2/C1=N/NC(=S)Nc1ccc([N+](=O)[O-])cc1` [8b, (Z)-N-(4-nitrophenyl)-2-(2-oxoindolin-3-ylidene)hydrazine-1-carbothioamide], for which, on h-NTPDase1, affinity was put at a Ki of 0.04 µM and the IC50 was 0.29 ± 0.02 µM. Also, the inhibition at 100 µM against m-NTPDase1 was determined as 14%. Besides, the inhibition at 100 µM at m-NTPDase3 was 28%.

As to `COc1ccc(NC(=S)NNC2=c3ccccc3=NC2=O)cc1` [8k, (Z)-N-(4-methoxyphenyl)-2-(2-oxoindolin-3-ylidene)hydrazine-1-carbothioamide], the inhibition at 100 µM amounted to 44% at h-NTPDase1, 42% on m-NTPDase1 and 36% on m-NTPDase3.

Turning to `O=C1Nc2ccccc2/C1=N/NC(=S)Nc1ccc(F)cc1` [8d, (Z)-N-(4-fluorophenyl)-2-(2-oxoindolin-3-ylidene)hydrazine-1-carbothioamide], the figures for the inhibition at 100 µM at h-NTPDase1, against m-NTPDase1 and on m-NTPDase3 were 49.1%, 41% and 29%, respectively.

With `Cc1ccc(NC(=S)N/N=C2\C(=O)Nc3ccccc32)cc1` [8h, (Z)-2-(2-oxoindolin-3-ylidene)-N-(p-tolyl)hydrazine-1-carbothioamide], the inhibition at 100 µM was 49% against h-NTPDase1, 29% against m-NTPDase1 and 31% against m-NTPDase3.

On h-NTPDase1, `COc1ccc(OC)c(NC(=S)N/N=C2\C(=O)Nc3ccccc32)c1` [8j, (Z)-N-(2,5-dimethoxyphenyl)-2-(2-oxoindolin-3-ylidene)hydrazine-1-carbothioamide] had a Ki of 0.02 µM and a concentration for half-maximal inhibition (IC50) of 0.15 ± 0.01 µM. The compound further returned an inhibition at 100 µM against m-NTPDase1 of 24%. Besides, testing at 100 µM on m-NTPDase3 gave an inhibition of 30%.

Regarding `O=C1Nc2ccccc2/C1=N/NC(=S)NCc1ccccc1` [8f, (Z)-N-benzyl-2-(2-oxoindolin-3-ylidene)hydrazine-1-carbothioamide], the Ki is 0.03 µM at h-NTPDase1 and 0.04 µM at m-NTPDase1. The 50% inhibitory concentration (IC50) on h-NTPDase1 came to 0.24 ± 0.01 µM; against m-NTPDase1 it was 4.14 ± 0.13 µM. The compound further registered an inhibition at 100 µM against m-NTPDase3 of 32%.

Regarding `COc1cccc(NC(=S)N/N=C2\C(=O)Nc3ccccc32)c1` [8e, (Z)-N-(3-methoxyphenyl)-2-(2-oxoindolin-3-ylidene)hydrazine-1-carbothioamide], the “Mode of inhibition of h-NTPDase1” value on h-NTPDase1 (Lineweaver-Burk plot) is “non-competitive”. Besides, the inhibition constant (Ki) is 0.15 µM at h-NTPDase1, 0.006 µM at m-NTPDase1 and 0.07 µM at m-NTPDase3. In addition, the concentration for half-maximal inhibition (IC50) turned out to be 0.15 ± 0.009 µM against h-NTPDase1, 0.6 ± 0.03 µM against m-NTPDase1 and 0.7 ± 0.05 µM against m-NTPDase3.

Take `O=C1Nc2ccccc2/C1=N/NC(=S)Nc1ccccc1` [8a, (Z)-2-(2-oxoindolin-3-ylidene)-N-phenylhydrazine-1-carbothioamide]: the inhibition at 100 µM against h-NTPDase1 came to 45%; against m-NTPDase1, 38%; at m-NTPDase3, 31%.

Regarding `CCNC(=S)N/N=C1\C(=O)Nc2ccccc21` [8m, (Z)-N-ethyl-2-(2-oxoindolin-3-ylidene)hydrazine-1-carbothioamide], the results for the inhibitory constant (Ki) at h-NTPDase1, on m-NTPDase1 and at m-NTPDase3 were 0.38 µM, 0.04 µM and 0.24 µM, respectively. Further, the 50% inhibitory concentration (IC50) against h-NTPDase1 worked out at 2.6 ± 0.02 µM; against m-NTPDase1 it was 3.6 ± 0.02 µM; against m-NTPDase3, 2.41 ± 0.15 µM.

With `Cc1cccc(C)c1NC(=S)N/N=C1\C(=O)Nc2ccccc21` [8i, (Z)-N-(2,6-dimethylphenyl)-2-(2-oxoindolin-3-ylidene)hydrazine-1-carbothioamide], the Ki at h-NTPDase1 was 0.24 µM. Besides, half-maximal inhibition on h-NTPDase1 (IC50) required 1.63 ± 0.15 µM. The inhibition at 100 µM was found to be 20% against m-NTPDase1 and 32% against m-NTPDase3.

Consider `O=C1Nc2ccccc2/C1=N/NC(=S)Nc1ccc(Cl)cc1` [8c, (Z)-N-(4-chlorophenyl)-2-(2-oxoindolin-3-ylidene)hydrazine-1-carbothioamide], for which, on h-NTPDase1, the inhibition constant Ki is 0.03 µM and it took 0.23 ± 0.01 µM to reach half-maximal inhibition (IC50). In addition, the inhibition at 100 µM against m-NTPDase1 turned out to be 28%.

Regarding `Cc1ccc(C(=O)Nc2ccc(S(=O)(=O)O)c3cc(S(=O)(=O)O)cc(S(=O)(=O)O)c23)cc1NC(=O)c1cccc(NC(=O)Nc2cccc(C(=O)Nc3cc(C(=O)Nc4ccc(S(=O)(=O)O)c5cc(S(=O)(=O)O)cc(S(=O)(=O)O)c45)ccc3C)c2)c1` [Suramin, reference compound], the Ki turned out to be 2.33 µM on h-NTPDase1 and 3.07 µM at m-NTPDase3. Besides, the results for the IC50 at h-NTPDase1, at m-NTPDase1 and at m-NTPDase3 were 16.1 ± 1.02 µM, above 100 µM and 31 ± 2 µM, respectively.
